# According to patent publication US7875452B2, “Non-desensitizing mutant of the transient receptor potential TRPM5 ion channel” (Redpoint Bio Corporation, priority 2007, dated 2011):
# Tests used:
# Assay type in all cases: cell-based
# [1] = target: T1, non-desensitizing (His)6-hTRPM5 ion channel (Homo sapiens, UniProt Q9NZQ8); assay: FMP dye membrane potential assay in cells transfected with non-desensitizing (His)6-hTRPM5; conditions: 10 μM ATP, HEK 293 cells transiently transfected with (His)6-hTRPM5, FIG. 3
# T1 construct: expressed in transfected cells; host or cells: HEK 293 cells (ATCC), transient transfection with pcDNA-DEST-26-(His)6-hTRPM5
# T1 sequence (Q9NZQ8 with tags, fused parts or gaps): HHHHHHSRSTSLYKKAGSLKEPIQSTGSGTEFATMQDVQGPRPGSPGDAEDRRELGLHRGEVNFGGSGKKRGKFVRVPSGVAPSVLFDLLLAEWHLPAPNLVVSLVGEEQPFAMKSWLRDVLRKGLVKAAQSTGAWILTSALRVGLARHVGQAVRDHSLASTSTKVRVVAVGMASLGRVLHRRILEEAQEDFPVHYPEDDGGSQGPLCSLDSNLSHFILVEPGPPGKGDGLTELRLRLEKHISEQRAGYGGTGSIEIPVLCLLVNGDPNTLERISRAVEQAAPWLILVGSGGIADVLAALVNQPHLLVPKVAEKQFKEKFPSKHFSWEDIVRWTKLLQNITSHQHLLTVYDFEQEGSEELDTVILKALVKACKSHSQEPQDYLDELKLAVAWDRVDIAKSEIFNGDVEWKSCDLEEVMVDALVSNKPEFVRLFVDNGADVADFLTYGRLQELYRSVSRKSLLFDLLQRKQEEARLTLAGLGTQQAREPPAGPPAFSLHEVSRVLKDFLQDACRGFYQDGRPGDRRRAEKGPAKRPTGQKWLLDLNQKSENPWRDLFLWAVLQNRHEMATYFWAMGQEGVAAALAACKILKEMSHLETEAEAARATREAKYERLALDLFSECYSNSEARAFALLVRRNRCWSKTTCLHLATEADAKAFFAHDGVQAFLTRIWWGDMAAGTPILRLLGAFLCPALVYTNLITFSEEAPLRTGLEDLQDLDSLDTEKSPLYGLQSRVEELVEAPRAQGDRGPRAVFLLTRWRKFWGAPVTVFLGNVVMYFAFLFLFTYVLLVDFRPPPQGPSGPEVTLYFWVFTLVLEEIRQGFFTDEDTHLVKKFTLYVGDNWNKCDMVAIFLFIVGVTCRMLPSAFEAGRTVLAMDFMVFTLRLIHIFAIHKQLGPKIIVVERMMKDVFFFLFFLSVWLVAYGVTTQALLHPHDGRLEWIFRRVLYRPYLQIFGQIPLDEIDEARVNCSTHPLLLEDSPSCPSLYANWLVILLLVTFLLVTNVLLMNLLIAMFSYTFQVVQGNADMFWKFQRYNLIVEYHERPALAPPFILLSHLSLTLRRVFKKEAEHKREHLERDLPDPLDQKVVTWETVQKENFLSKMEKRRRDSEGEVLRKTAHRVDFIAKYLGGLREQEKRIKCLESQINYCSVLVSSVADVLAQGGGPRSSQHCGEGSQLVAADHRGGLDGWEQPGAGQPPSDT
# Procedure: (§1) 5.0×10^6 HEK 293 cells (ATCC) were plated in a 10 cm culture dish at 37° C. in a CO2 incubator in Dulbecco's Modified Eagle's Medium (DMEM) supplemented with 10% Fetal Bovine Serum (FBS) and Penicillin-Streptomycin Solution. The following day, medium in the culture dish was exchanged with 15 mL of DMEM/10% FBS over a period of 3 hours. Prior to cell transfection, 24 μg of pcDNA-DEST-26-(His)6-hTRPM5 was incubated in a 5 mL polypropylene tube for 5 minutes at room temperature in 1.5 mL of OPTI-MEM media (Invitrogen). In a separate 5 mL polypropylene tube, 42 μL of Lipofectamine™ 2000 (Invitrogen) was incubated for 5 minutes at room temperature in 1.5 mL of OPTI-MEM media. […] Plates were then assayed on a FLIPR Tetra reader as described.
# (§2) 100 μl of the Blue or Red FMP dye (Molecular Devices) was added to each well of plates seeded with HEK cells transiently transfected with pDEST-26™-(His)6-hTRPM 5. […] The plate was read in a FLEXStation™ microplate reader (Molecular Devices) with an excitation of 530 nm and an emission of 565 nm. The fluorescence was monitored for 3 minutes upon exposure of the cells to a calcium activating agent (carbachol, thrombin peptide or ATP). […]
# Cells transfected with non-desensitizing (His)6-hTRPM5 DNA were loaded with FMP dye and then treated with 10 μM ATP and monitored for an increase in cellular fluorescence in the FLEXstation™. […]
# wildtype hTRPM5 = target: T2, wildtype hTRPM5 (Homo sapiens, UniProt Q9NZQ8); assay: FMP dye membrane potential assay in cells transfected with wildtype hTRPM5; conditions: 10 μM ATP, cells transfected with wildtype hTRPM5, FIG. 3
# T2 construct: the full length hTRPM5 was amplified by PCR using GC Melt; expressed in transfected cells; host or cells: HEK 293 cells
# T2 sequence (Q9NZQ8 1-1165): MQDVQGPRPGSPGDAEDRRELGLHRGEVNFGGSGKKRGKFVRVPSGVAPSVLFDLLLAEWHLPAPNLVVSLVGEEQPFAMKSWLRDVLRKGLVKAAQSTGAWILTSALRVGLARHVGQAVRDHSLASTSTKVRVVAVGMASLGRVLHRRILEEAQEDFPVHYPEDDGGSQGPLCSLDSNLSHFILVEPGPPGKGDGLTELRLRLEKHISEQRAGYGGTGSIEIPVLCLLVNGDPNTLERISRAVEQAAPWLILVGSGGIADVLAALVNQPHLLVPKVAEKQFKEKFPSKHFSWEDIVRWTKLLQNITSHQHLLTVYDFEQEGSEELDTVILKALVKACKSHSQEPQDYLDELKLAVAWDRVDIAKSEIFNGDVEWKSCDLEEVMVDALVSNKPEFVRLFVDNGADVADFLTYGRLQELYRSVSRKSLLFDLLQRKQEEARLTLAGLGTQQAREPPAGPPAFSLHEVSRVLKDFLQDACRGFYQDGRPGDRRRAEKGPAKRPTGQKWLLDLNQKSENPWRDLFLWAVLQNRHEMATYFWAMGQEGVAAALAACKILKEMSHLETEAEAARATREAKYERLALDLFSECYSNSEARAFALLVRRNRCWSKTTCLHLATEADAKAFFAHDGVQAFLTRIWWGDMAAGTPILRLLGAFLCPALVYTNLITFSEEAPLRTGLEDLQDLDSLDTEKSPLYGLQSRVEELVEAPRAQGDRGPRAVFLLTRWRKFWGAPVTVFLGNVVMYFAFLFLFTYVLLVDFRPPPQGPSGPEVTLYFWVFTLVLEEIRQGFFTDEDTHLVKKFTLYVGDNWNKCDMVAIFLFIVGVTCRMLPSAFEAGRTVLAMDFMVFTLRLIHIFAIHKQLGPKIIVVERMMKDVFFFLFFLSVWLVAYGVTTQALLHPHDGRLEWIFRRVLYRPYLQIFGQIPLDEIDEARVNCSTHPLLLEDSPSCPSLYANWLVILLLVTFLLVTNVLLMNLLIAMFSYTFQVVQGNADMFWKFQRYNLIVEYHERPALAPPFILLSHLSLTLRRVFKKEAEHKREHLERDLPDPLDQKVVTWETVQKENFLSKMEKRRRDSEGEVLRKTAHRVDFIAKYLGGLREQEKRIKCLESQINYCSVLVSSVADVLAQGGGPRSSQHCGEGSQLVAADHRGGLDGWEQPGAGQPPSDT
# Procedure: as §1, with “media. After the 5 minute incubation period, the pcDNA-DEST-26-(His)6-hTRPM5 and Lipofectamine™ 2000 solutions were mixed together and incubated for an additional 20 minutes at room temperature.” for “media.”
# as §2
# [2] = test system: cells transfected with PSV3 Neo; assay: FMP dye membrane potential assay in sham cells transfected with PSV3 Neo empty vector; conditions: 10 μM ATP, sham control, FIG. 3
# Procedure: 100 μl of the Blue or Red FMP dye (Molecular Devices) was added to each well of plates seeded with HEK cells transiently transfected with pDEST-26™-(His)6-hTRPM 5. The plate was then incubated in a 37° C. /5% CO2 incubator for 1 hour. The plate was read in a FLEXStation™ microplate reader (Molecular Devices) with an excitation of 530 nm and an emission of 565 nm. The fluorescence was monitored for 3 minutes upon exposure of the cells to a calcium activating agent (carbachol, thrombin peptide or ATP).
# Cells transfected with either wildtype hTRPM5 DNA, non-desensitizing (His)6-hTRPM5 DNA or PSV3 Neo were loaded with FMP dye and then treated with 10 μM ATP and monitored for an increase in cellular fluorescence in the FLEXstation™.
structure (smiles),measurement,setting,value
"Nc1ncnc2c1ncn2[C@@H]1O[C@H](COP(=O)(O)OP(=O)(O)OP(=O)(O)O)[C@@H](O)[C@H]1O [ATP, adenosine triphosphate]",time for which fluorescence is observed at significant levels after activation,[1],more than 3 minutes
same,duration of increase in fluorescence (initial activation) before rapid inactivation,wildtype hTRPM5,about 30 seconds
same,membrane potential response (cellular fluorescence) to application,[2],no significant response
